Experimental data as given in US20070203225A1, “METHOD OF INCREASING ENDOGENOUS ADIPONECTIN PRODUCTION AND LEPTIN PRODUCTION” (priority 2001, published 2007).
“Also recorded” adds a separate entry of the source.

Experiments:
isolated rat adipocytes = assay: Glucose oxidation: incorporation of 14C-glucose into CO2 by isolated rat adipocytes; assay type: cell-based
Protocol: Substrate Oxidation: Oxidation is measured using a modification of the method of Rodbell (Rodbell, 1964) and a modification of the cell culture system described by Bottcher and Furst (Bottcher, 1996). Briefly, adipocytes are isolated, counted and sized as previously described. Adipocytes are plated as described except they are placed in a sterile 20 ml scintillation vial instead of a well. Two ml of treatment media containing [U-^14C]-substrate (0.3 uCi/ml; glucose, fatty acids, malate, fumarate, pyruvate) is added to the vials. The vials are filled with 95% O2-5% CO2 gas and capped with rubber stoppers fitted with a hanging center well. Each well contains a 2×8 cm strip of Whatman No. 1 paper. Vials are maintained at 37° C. for 48 hr. After 48 hr, a sample of media is removed from each vial using a 4 inch, 23 gauge needle. Using another syringe and 23 gauge needle, 200 ul of sodium benzethonium is placed onto the paper strip and hanging well to capture CO2. Concentrated sulfuric acid is added to the vial in order to lyse cells and liberate all CO2 from the collagen matrix. After 24 hours, the hanging well and paper are transferred to another vial containing scintillation fluid and counted. The data are expressed as % DPM recovered as CO2 of the total DPM remaining in the media at 48 hours and as micromoles of substrate oxidized over time.

cultured rat adipocytes = assay: Adiponectin secretion by isolated cultured rat adipocytes over 96 h; assay type: cell-based
Protocol: Several studies have reported that thiazolidenediones (TZDs), agonists of PPARγ, increase adiponectin expression and circulating levels in animals (Maeda, 2001; Yamauchi, 2001a; Ye, 2003). TZD (10 μM Troglitazone) stimulated of adiponectin secretion from cultured rat adipocytes from 3 different depots (n=6). Mesenteric fat produced the largest amount of adiponectin over 96 hours in culture. (FIG. 5A). Adiponectin secretion from both the control- and TZD-treated adipocytes was well correlated with the glucose utilization (control, r=0.79; p<0.001); (TZD-treated, r=0.84, p=<0.0001, FIG. 5B) showing that, similar to leptin production, glucose metabolism also is involved in the regulation of adiponectin production by adipocytes.
Insulin increased adiponectin production from 3 different fat depots, however as in the experiments with troglitazone, the mesenteric depot produced the most adiponectin (FIG. 6B). Like leptin, both basal and insulin-stimulated adiponectin secretion was highly correlated to glucose utilization (r=0.91, p<0.0001) (FIG. 6C), and inversely related to the proportion of glucose metabolized to lactate (r=−0.81, p<0.0001) (FIG. 6D).
Also paralleling the regulation of leptin, adiponectin secretion by isolated cultured adipocytes was increased during 96 h culture by inhibitors of PDH-K. DTNB (100 μM) increased adiponectin secretion by 40% (p<0.03, n=6, FIG. 7A). DCA (2 mM) increased adiponectin secretion by 23% (p<0.025, n=6, FIG. 7B). The increase in adiponectin induced by DTNB was highly correlated with glucose utilization (r=0.95, p<0.004). Furthermore in adipocytes transfected with antisense directed at PDH-K, adiponectin secretion was stimulated by 24.3±8.4%, p<0.05, n=7, FIG. 7C).
Cell isolation/preparation: Adipocytes are prepared from epididymal fat pads from male Sprague-Dawley rats weighing 300-600 g. Epididymal fat depots are resected from halothane anesthetized rats under aseptic conditions and adipocytes are isolated by collagenase digestion by the Rodbell method (Rodbell M. Metabolism of isolated fat cells. I. Effects of hormones on glucose metabolism and lipolysis. J Biol Chem. 1964; 239: 375-380), with minor modifications as previously described (Mueller W M, Gregoire F M, Stanhope K L, Mobbs C V, Mizuno T M, Warden C H, Stem J S, Havel P J. Evidence that glucose metabolism regulates leptin secretion from isolated adipocytes. Endocrinology 139: 551-558, 1998; Mueller W M, Stanhope K L, Gregoire F, Evans J L, Havel P J. Effects of metformin and vanadium on leptin secretion from cultured rat adipocytes. Obesity Res. 8: 530-539, 2000; Medina E A, Stanhope K L, Mizuno T M, Mobbs C V, Gregoire F, Hubbard N E, Erickson K L, Havel P J. Effects of tumor necrosis factor alpha on leptin secretion and gene expression: relationship to changes of glucose metabolism in isolated rat adipocytes. Int J Obes Relat Metab Disord. 23: 896-903, 1999.). The isolated adipocytes are then incubated for 30 minutes at 37 C before being plated and cultured on Matrigel-coated plates.
Adipocyte Culture: Adipocytes are maintained in culture anchored to a basement membrane matrix (Matrigel, Becton Dickinson, Franklin Lakes, N.J.) or collagen from Cohesion Technologies, (Palo Alto, Calif.). […]

Compound | effect on absolute and proportional glucose oxidation, labeled glucose into CO2 (in words) (isolated rat adipocytes; DTNB (50 μM in FIG. 20) and DCA (2 mM), percent of control) | increase of adiponectin secretion (cultured rat adipocytes; DTNB 100 μM, DCA 2 mM, 96 h culture, n=6) [%] | effect on adiponectin secretion (in words) (cultured rat adipocytes; PDH kinase inhibitors DTNB and DCA) | increase of proportional oxidation of glucose (isolated rat adipocytes; insulin 1.6 nM) [%] | effect on amount of glucose oxidized to CO2 (in words) (isolated rat adipocytes; insulin 1.6 nM, n=18) | adiponectin secretion, 96 hr total (cultured rat adipocytes; 1.6 nM insulin, control 179.9±35.3 ng, n=6) [ng] | effect on adiponectin secretion (in words) (cultured rat adipocytes; insulin (1.6 nM), 96 hour culture)
O=C(O)c1cc(SSc2ccc([N+](=O)[O-])c(C(=O)O)c2)ccc1[N+](=O)[O-] [DTNB, 5,5′-Dithiobis(2-nitrobenzoate)] | increase | 40 | increase |  |  |  | 
insulin |  |  |  | 43.6±10.6 | doubles; also recorded: markedly increases | 312.3 ± 44 | significant increase; also recorded: increases
